Laboratory results taken from the supplement of paper PMC10307832.

What was measured:
Test in all cases: relative viability (nuclei count vs DMSO), 5 days (fraction); higher = more cells survive
[1] = compound: C1/C(=C\C2=CC=CS2)/C(=O)/C(=C/C3=CC=CS3)/C1
In short: (§1)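 Lung cancer cell lines in 1536-well plates were exposed by pinning to five library-drug doses (not always all listed) √10 apart, following an overnight hold at 37 °C. MetaXpress counted Hoechst-stained nuclei from 4× images taken after 5 days without medium change. Viability is the median ratio of treated-well to vehicle-well nuclei across plates. Plates required control CV below 25% and at least one doubling.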

[2] = compound: C[C@]12O[C@H](C[C@]1(O)CO)n1c3ccccc3c3c4c(c5c6ccccc6n2c5c31)CNC4=O [Lestaurtinib]
In short: as §1

[3] = compound: C1=CC(=CC=C1C2=CC(=C(S2)NC(=O)N)C(=O)N)F [TPCA-1]
In short: as §1

**Q.** How did the relative viability ([1]; 0.2 µM) turn out when UMC-11 was run?
**A.** 0.975

**Q.** What about the relative viability ([1]; 0.6325 µM) of the same cell line?
**A.** 0.993

**Q.** What about the relative viability ([1]; 2 µM) of the same cell line?
**A.** 0.954

**Q.** And the relative viability ([1]; 6.325 µM)?
**A.** 0.711

**Q.** And the relative viability ([1]; 20 µM)?
**A.** 0.941

**Q.** And the relative viability ([2]; 0.005 µM)?
**A.** 1.01

**Q.** What about the relative viability ([2]; 0.01581 µM) of the same cell line?
**A.** 0.958

**Q.** What about the relative viability ([2]; 0.05 µM) of the same cell line?
**A.** 0.615

**Q.** What about the relative viability ([2]; 0.1581 µM) of the same cell line?
**A.** 0.353

**Q.** What about the relative viability ([2]; 0.5 µM) of the same cell line?
**A.** 0.19

**Q.** What about the relative viability ([3]; 0.04 µM) of the same cell line?
**A.** 1.03

**Q.** What about the relative viability ([3]; 0.1265 µM) of the same cell line?
**A.** 0.87

**Q.** What about the relative viability ([3]; 0.4 µM) of the same cell line?
**A.** 1.03

**Q.** What about the relative viability ([3]; 1.265 µM) of the same cell line?
**A.** 0.976

**Q.** And the relative viability ([3]; 4 µM)?
**A.** 0.374
